Assay results reported in patent US20250042857A1, “SOS1 Inhibitor With Pyrido-Fused Six-Membered Ring Structure” (HAIHE BIOPHARMA CO., LTD., priority 2021, published 2025).
Like-named read-outs stand apart in the source and are kept apart here.

Experiments:
[1] = target: KRAS-G12C/SOS1 (Homo sapiens (Human), UniProt Q07889); assay: Detection of inhibitory effects of compounds on KRAS-G12C/SOS1 (KRASG12C/SOS binding kit, HTRF); conditions: Em665/620, read-out: IC50, inhibitory activity on interaction of KRAS-G12C/SOS1
Procedure, shortened: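 HTRF binding of Tag2-KRAS-G12C to Tag1-SOS1 with compounds (10-point 3-fold dilution from 5,000 nM) for 15 min at room temperature, then anti-Tag1-Tb and anti-Tag2-XL665 for 120 min at 4° C. Em665/620 read; inhibition normalised to control wells, IC50 from variable-slope log(inhibitor) fit.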

[2] = test system: p-ERK of PC-9 cells; assay: p-ERK HTRF assay in PC-9 cells; assay type: cell-based; conditions: PC-9 lung cancer cells, 1 hour treatment, read-out: IC50, inhibitory activity on p-ERK of PC-9 cells
Procedure, shortened: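 PC-9 lung cancer cells plated overnight, then exposed 1 h at 37 °C to a 10-point compound series (10,000–[…] nM final, 0.1% DMSO). After 1 h lysis, phospho-ERK1/2 (Thr202/Tyr204) measured by HTRF at 665/615 nm. Percent inhibition calculated from max and min signals.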

Sequence of KRAS-G12C/SOS1 (Q07889 whole entry, stated change not applied): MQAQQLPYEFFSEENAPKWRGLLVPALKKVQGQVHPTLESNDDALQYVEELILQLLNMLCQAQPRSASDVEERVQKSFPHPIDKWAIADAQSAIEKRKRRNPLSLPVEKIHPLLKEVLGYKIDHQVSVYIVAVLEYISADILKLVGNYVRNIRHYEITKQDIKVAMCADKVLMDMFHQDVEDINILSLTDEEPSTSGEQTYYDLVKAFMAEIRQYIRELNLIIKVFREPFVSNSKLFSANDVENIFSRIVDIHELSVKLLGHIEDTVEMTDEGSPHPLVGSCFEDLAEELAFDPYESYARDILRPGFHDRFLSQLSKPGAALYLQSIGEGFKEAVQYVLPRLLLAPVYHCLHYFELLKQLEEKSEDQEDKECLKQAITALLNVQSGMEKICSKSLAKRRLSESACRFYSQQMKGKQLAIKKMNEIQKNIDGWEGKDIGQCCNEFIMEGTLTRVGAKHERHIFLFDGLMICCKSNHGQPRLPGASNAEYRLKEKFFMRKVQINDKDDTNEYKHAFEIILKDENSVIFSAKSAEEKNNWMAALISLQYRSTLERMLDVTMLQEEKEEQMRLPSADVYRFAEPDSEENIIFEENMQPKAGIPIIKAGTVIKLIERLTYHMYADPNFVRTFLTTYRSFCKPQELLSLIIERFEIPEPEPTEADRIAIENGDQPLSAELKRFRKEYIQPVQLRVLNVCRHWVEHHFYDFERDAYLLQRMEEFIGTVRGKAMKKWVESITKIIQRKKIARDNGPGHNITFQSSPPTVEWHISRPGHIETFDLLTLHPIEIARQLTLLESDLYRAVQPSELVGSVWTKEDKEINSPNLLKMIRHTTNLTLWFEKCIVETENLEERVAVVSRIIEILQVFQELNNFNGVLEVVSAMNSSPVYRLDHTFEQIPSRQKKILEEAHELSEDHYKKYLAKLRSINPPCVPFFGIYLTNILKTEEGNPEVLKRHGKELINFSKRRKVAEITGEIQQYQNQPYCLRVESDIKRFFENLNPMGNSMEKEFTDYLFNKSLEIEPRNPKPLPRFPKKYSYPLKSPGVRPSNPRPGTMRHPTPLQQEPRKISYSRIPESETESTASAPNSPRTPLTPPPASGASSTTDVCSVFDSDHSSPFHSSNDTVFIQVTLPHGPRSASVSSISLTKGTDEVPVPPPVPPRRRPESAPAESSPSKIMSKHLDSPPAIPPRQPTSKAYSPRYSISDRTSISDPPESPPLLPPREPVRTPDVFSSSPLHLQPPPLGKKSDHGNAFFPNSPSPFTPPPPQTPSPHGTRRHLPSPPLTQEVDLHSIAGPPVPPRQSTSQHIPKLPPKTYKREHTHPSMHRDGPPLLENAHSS

IC50 [1] [µM]	IC50 ([2]; Homo sapiens, PC-9, 1 h) [µM]	IC50 [2] [µM]	Structure (SMILES)
≤ 0.1	> 1	–	C[C@@H](Nc1ccnc2cnc(C3(O)CCN(C(=O)[C@H]4CNCCO4)CC3)cc12)c1cccc(C(F)F)c1F [Compound B-136]
≤ 0.1	≤ 0.3	–	C[C@@H](Nc1ccnc2cnc(C3(O)CCN(C(=O)CN4CCOCC4)CC3)cc12)c1cccc(C(F)F)c1F [Compound B-148]
≤ 0.1	≤ 0.3	–	COCC(=O)N1CCC(O)(c2cc3c(N[C@H](C)c4cccc(C(F)F)c4F)ccnc3cn2)CC1 [Compound B-114]
≤ 0.1	≤ 0.3	–	CC(=O)N1CCN(c2cc3c(N[C@H](C)c4cccc(C(F)F)c4F)ccnc3c(-c3cnn(C)c3)n2)CC1 [Compound B-169]
≤ 0.1	≤ 0.3	–	C[C@@H](Nc1ccnc2cnc(C3(O)CCN(C(=O)NCCO)CC3)cc12)c1cccc(C(F)F)c1F [Compound B-163]
≤ 0.1	0.3 to 1	–	C[C@@H](Nc1ccnc2cnc(C3(O)CCN(C(=O)N4CC[C@H](O)C4)CC3)cc12)c1cccc(C(F)F)c1F [Compound B-161]
≤ 0.1	–	> 1	COc1nc(C2(O)CCC(O)CC2)cc2c(N[C@H](C)c3cccc(C(F)F)c3F)ccnc12 (single isomer, unassigned) [Compound B-178-P1]
≤ 0.1	≤ 0.3	–	C[C@H](O)C(=O)N1CCC(O)(c2cc3c(N[C@H](C)c4cccc(C(F)F)c4F)ccnc3cn2)CC1 [Compound B-119]

More lines, now with the values behind:

Structure (SMILES)	IC50 [1] [µM]	IC50 ([2]; Homo sapiens, PC-9, 1 h) [µM]	IC50 [2] [µM]
CC(=O)N1CCN(c2cc3c(N[C@H](C)c4cccc(C(F)(F)F)c4C)ccnc3cn2)CC1 [Compound B-50]	≤ 0.1	≤ 0.3	–
CC(=O)N1CCC(O)(c2cc3c(N[C@H](C)c4cccc(C(F)F)c4F)ccnc3c(C)n2)CC1 [Compound B-68]	≤ 0.1	> 1	–
C[C@@H](Nc1ccnc2cnc(C3(O)CCC(O)CC3)cc12)c1cccc(C(F)(F)F)c1F (single isomer, unassigned) [Compound B-85-P2]	≤ 0.1	–	≤ 0.3
COc1nc(N2CCN(C(C)=O)CC2)cc2c(N[C@H](C)c3cccc(C(F)F)c3F)ccnc12 [Compound B-73]	≤ 0.1	≤ 0.3	–
CC(=O)N1C2CCC1CN(c1cc3c(N[C@H](C)c4cccc(C#N)c4F)ccnc3cn1)C2 [Compound B-165]	≤ 0.1	0.3 to 1	–
CNC(=O)C1(O)CCN(c2cc3c(N[C@H](C)c4cccc(C(F)F)c4F)ccnc3cn2)CC1 [Compound B-76]	≤ 0.1	≤ 0.3	–
C[C@@H](Nc1ccnc2cnc(-c3ccc(=O)n(C)c3)cc12)c1cccc(C(F)F)c1F [Compound B-107]	≤ 0.1	≤ 0.3	–
C[C@@H](Nc1ccnc2cnc(C3CC3)cc12)c1cccc(C(F)F)c1F [Compound B-1]	≤ 0.1	0.3 to 1	–
C[C@@H](Nc1ccnc2cnc(N3CCCCS3(=O)=O)cc12)c1cccc(C(F)F)c1F [Compound B-60]	≤ 0.1	≤ 0.3	–
COC[C@@H]1CN(C(C)=O)CCN1c1cc2c(N[C@H](C)c3cccc(C(F)F)c3F)ccnc2cn1 [Compound B-48]	≤ 0.1	≤ 0.3	–
C[C@@H](Nc1ccnc2cnc(N3CCCS3(=O)=O)cc12)c1cccc(C(F)F)c1F [Compound B-52]	≤ 0.1	≤ 0.3	–
C[C@@H](Nc1ccnc2cnc(C3(O)CCN(CCO)CC3)cc12)c1cccc(C#N)c1F [Compound B-168]	0.1 to 0.5	> 1	–
C[C@@H](Nc1ccnc2cnc(C3(O)CCN(CCO)CC3)cc12)c1cccc(C(F)F)c1F [Compound B-117]	≤ 0.1	0.3 to 1	–
COc1c(C2=CCN(C(C)=O)CC2)cc2c(N[C@H](C)c3cccc(C(F)F)c3F)ccnc2c1F [Compound A-101]	≤ 0.1	0.3 to 1	–
